Test: Phase 1/2 MRZ + BEV and MRZ monotherapy in recurrent G4 MG: adverse events, DLT
[1] = MRZ+BEV, 36 pts, as of 12 Sep. 2016

Protocol: The clinical trial was a Phase 1, dose-escalation (3+3 design) followed by dose-expansion at recommended Phase 2 Dose (RP2D).
The drugs were infused on 28-Day Cycles. Tumor response is assessed every other cycle by RANO criteria.
The safety data will be presented in individual listings and summary tables, including frequency tables for adverse events and frequency and shift tables for laboratory variables. The safety population will be all subjects who received at least one dose of either study drug in Phase 1 or MRZ in Phase 2.

Structure (SMILES): C[C@@]12OC(=O)[C@]1([C@@H](O)[C@@H]1C=CCCC1)NC(=O)[C@@H]2CCCl [marizomib]
- confusional state, marizomib-related adverse events ≥3, patients (MRZ + BEV, N = 36): 3
- headache, marizomib-related adverse events ≥3, patients (MRZ + BEV, N = 36): 3
- patients with marizomib-related serious adverse events (MRZ + BEV, N = 36): Four
- Anaemia: # pts, related to MRZ (MRZ+BEV, 12 Sep. 2016): 6
- Anxiety: # pts, related to MRZ (MRZ+BEV, 12 Sep. 2016): 0
- Aphasia: # pts, related to MRZ (MRZ+BEV, 12 Sep. 2016): 0
- Appendicitis Perforated: # pts, related to MRZ (MRZ+BEV, 12 Sep. 2016): 0
- Asthenia: # pts, related to MRZ (MRZ+BEV, 12 Sep. 2016): 0
- Ataxia: # pts, related to MRZ (MRZ+BEV, 12 Sep. 2016): 6
- Confusional State: # pts, related to MRZ (MRZ+BEV, 12 Sep. 2016): 6
- Constipation: # pts, related to MRZ (MRZ+BEV, 12 Sep. 2016): 4
- Convulsion: # pts, related to MRZ (MRZ+BEV, 12 Sep. 2016): 0
- Delusion: # pts, related to MRZ (MRZ+BEV, 12 Sep. 2016): 1
- Depressed Level of Consciousness: # pts, related to MRZ (MRZ+BEV, 12 Sep. 2016): 0
- Diarrhoea: # pts, related to MRZ (MRZ+BEV, 12 Sep. 2016): 9
- Dizziness: # pts, related to MRZ (MRZ+BEV, 12 Sep. 2016): 8
- Dysarthria: # pts, related to MRZ (MRZ+BEV, 12 Sep. 2016): 1
- Dysphagia: # pts, related to MRZ (MRZ+BEV, 12 Sep. 2016): 0
- Dysphonia: # pts, related to MRZ (MRZ+BEV, 12 Sep. 2016): 0
- Dyspnoea: # pts, related to MRZ (MRZ+BEV, 12 Sep. 2016): 0
- Ear Infection: # pts, related to MRZ (MRZ+BEV, 12 Sep. 2016): 0
- Embolism: # pts, related to MRZ (MRZ+BEV, 12 Sep. 2016): 0
- Epistaxis: # pts, related to MRZ (MRZ+BEV, 12 Sep. 2016): 0
- Falls: # pts, related to MRZ (MRZ+BEV, 12 Sep. 2016): 3
- Fatigue: # pts, related to MRZ (MRZ+BEV, 12 Sep. 2016): 1
- Fracture of Femur: # pts, related to MRZ (MRZ+BEV, 12 Sep. 2016): 0
- Haemorrhage Intracranial: # pts, related to MRZ (MRZ+BEV, 12 Sep. 2016): 0
- Hallucination: # pts, related to MRZ (MRZ+BEV, 12 Sep. 2016): 11
- Headache: # pts, related to MRZ (MRZ+BEV, 12 Sep. 2016): 5
- Hemiparesis: # pts, related to MRZ (MRZ+BEV, 12 Sep. 2016): 0
- Hyperglycemia: # pts, related to MRZ (MRZ+BEV, 12 Sep. 2016): 0
- Hypertension: # pts, related to MRZ (MRZ+BEV, 12 Sep. 2016): 0
- Hypokalemia: # pts, related to MRZ (MRZ+BEV, 12 Sep. 2016): 0
- Hyponatremia: # pts, related to MRZ (MRZ+BEV, 12 Sep. 2016): 1
- Hypotension: # pts, related to MRZ (MRZ+BEV, 12 Sep. 2016): 0
- Infusion Site Pain: # pts, related to MRZ (MRZ+BEV, 12 Sep. 2016): 6
- Insomnia: # pts, related to MRZ (MRZ+BEV, 12 Sep. 2016): 1
- Lymphocyte Count Decreased: # pts, related to MRZ (MRZ+BEV, 12 Sep. 2016): 0
- Muscular Weakness: # pts, related to MRZ (MRZ+BEV, 12 Sep. 2016): 2
- Nausea: # pts, related to MRZ (MRZ+BEV, 12 Sep. 2016): 19
- Optic Nerve Disorder: # pts, related to MRZ (MRZ+BEV, 12 Sep. 2016): 0
- Pyramidal Tract Syndrome: # pts, related to MRZ (MRZ+BEV, 12 Sep. 2016): 0
- Tumor Metastasis: # pts, related to MRZ (MRZ+BEV, 12 Sep. 2016): 0
- Vision Blurred: # pts, related to MRZ (MRZ+BEV, 12 Sep. 2016): 3
- Vomiting: # pts, related to MRZ (MRZ+BEV, 12 Sep. 2016): 12
- Anaemia: # events related to MRZ (MRZ+BEV, 17 May 2016): 9
- Aphasia: # events related to MRZ (MRZ+BEV, 17 May 2016): 0
- Appendicitis Perforated: # events related to MRZ (MRZ+BEV, 17 May 2016): 0
- Asthenia: # events related to MRZ (MRZ+BEV, 17 May 2016): 0
- Ataxia: # events related to MRZ (MRZ+BEV, 17 May 2016): 10
- Confusional State: # events related to MRZ (MRZ+BEV, 17 May 2016): 8
- Constipation: # events related to MRZ (MRZ+BEV, 17 May 2016): 5
- Convulsion: # events related to MRZ (MRZ+BEV, 17 May 2016): 0
- Delusion: # events related to MRZ (MRZ+BEV, 17 May 2016): 1
- Diarrhoea: # events related to MRZ (MRZ+BEV, 17 May 2016): 12
- Dizziness: # events related to MRZ (MRZ+BEV, 17 May 2016): 13
- Dysarthria: # events related to MRZ (MRZ+BEV, 17 May 2016): 1
- Dysphagia: # events related to MRZ (MRZ+BEV, 17 May 2016): 0
- Dysphonia: # events related to MRZ (MRZ+BEV, 17 May 2016): 0
- Dyspnoea: # events related to MRZ (MRZ+BEV, 17 May 2016): 0
- Ear Infection: # events related to MRZ (MRZ+BEV, 17 May 2016): 0
- Embolism: # events related to MRZ (MRZ+BEV, 17 May 2016): 0
- Epistaxis: # events related to MRZ (MRZ+BEV, 17 May 2016): 0
- Fatigue: # events related to MRZ (MRZ+BEV, 17 May 2016): 1
- Haemorrhage Intracranial: # events related to MRZ (MRZ+BEV, 17 May 2016): 0
- Hallucination: # events related to MRZ (MRZ+BEV, 17 May 2016): 16
- Headache: # events related to MRZ (MRZ+BEV, 17 May 2016): 6
- Hemiparesis: # events related to MRZ (MRZ+BEV, 17 May 2016): 0
- Hyperglycemia: # events related to MRZ (MRZ+BEV, 17 May 2016): 0
- Hypertension: # events related to MRZ (MRZ+BEV, 17 May 2016): 0
- Hypokalemia: # events related to MRZ (MRZ+BEV, 17 May 2016): 1
- Hypotension: # events related to MRZ (MRZ+BEV, 17 May 2016): 0
- Insomnia: # events related to MRZ (MRZ+BEV, 17 May 2016): 1
- Lymphocyte Count Decreased: # events related to MRZ (MRZ+BEV, 17 May 2016): 0
- Muscular Weakness: # events related to MRZ (MRZ+BEV, 17 May 2016): 3
- Nausea: # events related to MRZ (MRZ+BEV, 17 May 2016): 36
- Pyramidal Tract Syndrome: # events related to MRZ (MRZ+BEV, 17 May 2016): 0
- Vomiting: # events related to MRZ (MRZ+BEV, 17 May 2016): 16
- Anaemia: # patients, AE related to labelled agent (BEV, MRZ, Both) [1]: 6
- Anxiety: # patients, AE related to labelled agent (BEV, MRZ, Both) [1]: 0
- Aphasia: # patients, AE related to labelled agent (BEV, MRZ, Both) [1]: 0
- Appendicitis Perforated: # patients, AE related to labelled agent (BEV, MRZ, Both) [1]: 0
- Asthenia: # patients, AE related to labelled agent (BEV, MRZ, Both) [1]: 0
- Ataxia: # patients, AE related to labelled agent (BEV, MRZ, Both) [1]: 6
- Confusional State: # patients, AE related to labelled agent (BEV, MRZ, Both) [1]: 6
- Constipation: # patients, AE related to labelled agent (BEV, MRZ, Both) [1]: 4
- Convulsion: # patients, AE related to labelled agent (BEV, MRZ, Both) [1]: 0
- Delusion: # patients, AE related to labelled agent (BEV, MRZ, Both) [1]: 1
- Depressed Level of Consciousness: # patients, AE related to labelled agent (BEV, MRZ, Both) [1]: 0
- Diarrhoea: # patients, AE related to labelled agent (BEV, MRZ, Both) [1]: 9
- Dizziness: # patients, AE related to labelled agent (BEV, MRZ, Both) [1]: 8
- Dysarthria: # patients, AE related to labelled agent (BEV, MRZ, Both) [1]: 1
- Dysphagia: # patients, AE related to labelled agent (BEV, MRZ, Both) [1]: 0
- Dysphonia: # patients, AE related to labelled agent (BEV, MRZ, Both) [1]: 0
- Dyspnoea: # patients, AE related to labelled agent (BEV, MRZ, Both) [1]: 0
- Ear Infection: # patients, AE related to labelled agent (BEV, MRZ, Both) [1]: 0
- Embolism: # patients, AE related to labelled agent (BEV, MRZ, Both) [1]: 0
- Epistaxis: # patients, AE related to labelled agent (BEV, MRZ, Both) [1]: 0
- Falls: # patients, AE related to labelled agent (BEV, MRZ, Both) [1]: 3
- Fatigue: # patients, AE related to labelled agent (BEV, MRZ, Both) [1]: 1
- Fracture of Femur: # patients, AE related to labelled agent (BEV, MRZ, Both) [1]: 0
- Haemorrhage Intracranial: # patients, AE related to labelled agent (BEV, MRZ, Both) [1]: 0
- Hallucination: # patients, AE related to labelled agent (BEV, MRZ, Both) [1]: 11
- Headache: # patients, AE related to labelled agent (BEV, MRZ, Both) [1]: 5
- Hemiparesis: # patients, AE related to labelled agent (BEV, MRZ, Both) [1]: 0
- Hyperglycemia: # patients, AE related to labelled agent (BEV, MRZ, Both) [1]: 0
- Hypertension: # patients, AE related to labelled agent (BEV, MRZ, Both) [1]: 0
- Hypokalemia: # patients, AE related to labelled agent (BEV, MRZ, Both) [1]: 0
- Hyponatremia: # patients, AE related to labelled agent (BEV, MRZ, Both) [1]: 1
- Hypotension: # patients, AE related to labelled agent (BEV, MRZ, Both) [1]: 0
- Infusion Site Pain: # patients, AE related to labelled agent (BEV, MRZ, Both) [1]: 6
- Insomnia: # patients, AE related to labelled agent (BEV, MRZ, Both) [1]: 1
- Lymphocyte Count Decreased: # patients, AE related to labelled agent (BEV, MRZ, Both) [1]: 0
- Muscular Weakness: # patients, AE related to labelled agent (BEV, MRZ, Both) [1]: 2
- Nausea: # patients, AE related to labelled agent (BEV, MRZ, Both) [1]: 19
- Optic Nerve Disorder: # patients, AE related to labelled agent (BEV, MRZ, Both) [1]: 0
- Pyramidal Tract Syndrome: # patients, AE related to labelled agent (BEV, MRZ, Both) [1]: 0
- Tumor Metastasis: # patients, AE related to labelled agent (BEV, MRZ, Both) [1]: 0
- Vision Blurred: # patients, AE related to labelled agent (BEV, MRZ, Both) [1]: 3
- Vomiting: # patients, AE related to labelled agent (BEV, MRZ, Both) [1]: 12
- tolerability (in combination with BEV and as monotherapy): generally well tolerated
